Like-named read-outs stand apart in the source and are kept apart here.
Columns and labels:
[1] = molecular target: T1, human GIP receptor (hGIPR) (Homo sapiens, UniProt P48546); test: [125I]-GIP binding, SPA with membranes of CHO cells expressing hGIPR
T1 construct: expressed in transfected cells; crude membranes
T1 sequence (P48546 22-466): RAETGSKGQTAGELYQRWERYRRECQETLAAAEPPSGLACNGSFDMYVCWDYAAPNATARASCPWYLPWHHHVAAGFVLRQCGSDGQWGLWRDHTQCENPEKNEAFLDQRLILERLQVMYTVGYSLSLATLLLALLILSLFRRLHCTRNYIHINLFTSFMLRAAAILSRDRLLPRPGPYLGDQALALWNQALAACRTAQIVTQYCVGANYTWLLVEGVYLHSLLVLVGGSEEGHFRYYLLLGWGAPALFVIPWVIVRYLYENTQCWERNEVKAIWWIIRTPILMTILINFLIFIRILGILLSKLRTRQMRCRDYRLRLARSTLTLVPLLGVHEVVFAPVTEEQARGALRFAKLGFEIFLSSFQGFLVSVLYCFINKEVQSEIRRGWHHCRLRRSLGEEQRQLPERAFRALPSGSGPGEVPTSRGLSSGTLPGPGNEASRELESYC
Procedure: Two methods are used for the preparation of crude cell membranes.
Method 1: Frozen cell pellets are lysed on ice in hypotonic buffer containing 50 mM Tris HCl, pH 7.5, and Roche Complete™ Protease Inhibitors with EDTA. […] The homogenate is centrifuged at 4° C. at 1100 × g for 10 minutes. The supernatant is collected and stored on ice while the pellets are resuspended in homogenization buffer and rehomogenized as described above. The homogenate is centrifuged at 1100 × g for 10 minutes. The second supernatant is combined with the first supernatant and centrifuged at 35000 × g for 1 hour at 4° C. The resulting membrane pellet is resuspended in homogenization buffer containing protease inhibitors at approximately 1 to 3 mg/mL, quick frozen in liquid nitrogen and stored as aliquots in a -80° C. freezer until use.
The homogenate is centrifuged at 4° C. at 1800 × g for 15 minutes. The supernatant is collected and stored on ice while the pellets are resuspended in homogenization buffer (without DNAse I) and rehomogenized as described above. The homogenate is centrifuged at 1800 × g for 15 minutes. The second supernatant is combined with the first supernatant and centrifuged an additional time at 1800 × g for 15 minutes. The overall supernatant is then centrifuged at 25000 × g for 30 minutes at 4° C. The resulting membrane pellet is resuspended in homogenization buffer (without DNAse I) containing protease inhibitors at approximately 1 to 3 mg/mL and stored as aliquots in a -80° C. freezer until use.
The binding buffer contains 25 mM HEPES, pH 7.4, 2.5 mM CaCl2, 1 mM MgCl2, 0.1% (w/v) bacitracin, 0.003% (w/v) TWEEN®-20, and Roche Complete™ Protease Inhibitors without EDTA. Peptides and GIP are thawed and 3 fold serially diluted in 100% DMSO (10 point concentration response curves). […] Plates are sealed and mixed on a plate shaker (setting 6) for 1 minute and read with a PerkinElmer Trilux MicroBeta® scintillation counter after 2.5 to 12 hours of incubation/settling time at room temperature.
Raw CPM data for concentration curves of peptides, Gcg, GLP-1, or GIP are converted to percent inhibition by subtracting nonspecific binding (binding in the presence of excess unlabeled Gcg, GLP-1, or GIP, respectively) from the individual CPM values and dividing by the total binding signal, also corrected by subtracting nonspecific binding. Data are analyzed using four-parameter (curve maximum, curve minimum, IC50, Hill slope) nonlinear regression routines (Genedata Screener, version 12.0.4, Genedata AG, Basal, Switzerland). […] Values for Ki are reported as the geometric mean, with error expressed as the standard error of the mean (SEM) and n is equal to the number of independent replicates (determined in assays performed on different days). Geometric Means are calculated as follows: […]
The Ki Ratio (Ki for native control peptide/Ki for test compound) at each receptor and each species is calculated. The Ki Ratio is a rapid indication of the apparent affinity of a peptide compared to the native control peptide.
n=⅟x means that only one value out of the total number of replicates (x) is used to express the mean. SEM is only calculated when n=2 or greater non-qualified results exist. Means are expressed as GeoMetric means with the standard error of the mean (SEM) and the number of replicates (n) indicated in parenthesis.

hGIPR = molecular target: T2, hGIPR (Homo sapiens, UniProt P48546); test: Functional cAMP formation (HTRF) in HEK-293 clonal cells expressing hGIPR, 0.1% bovine casein, without or with 1.0% human serum albumin; type: cell-based; conditions: for EC50: geometric mean
T2 construct: expressed in transfected cells
T2 sequence (P48546 22-466): T1 sequence (P48546 22-466)
Summary of the method: (§1)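 Cells were stimulated with peptide for 30 min at 37° C, then intracellular cAMP was measured by competitive HTRF (665/620 nm ratio) and converted to nM using a cAMP standard curve. Relative EC50 and Emax came from four-parameter logistic fits of percent maximal response against peptide concentration.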

hGCGR = molecular target: T3, hGCGR (Homo sapiens, UniProt P47871); test: Functional cAMP formation (HTRF) in HEK-293 clonal cells expressing hGCGR, 0.1% bovine casein, without or with 1.0% human serum albumin; type: cell-based
T3 construct: expressed in transfected cells
Summary of the method: as §1

hGLP-1R = hGLP-1R (Homo sapiens, UniProt P43220); test: Functional cAMP formation (HTRF) in HEK-293 clonal cells expressing hGLP-1R, 0.1% bovine casein, without or with 1.0% human serum albumin; type: cell-based; parameters: expressed in transfected cells; conditions: for Emax: HEK293, read-out: hGLP-1R Emax, % ± SEM, cAMP, 37° C., 0.1% bovine casein, percent of maximal response to GLP-1(7-36)NH2, arithmetic mean; for EC50: 37° C., geometric mean
Summary of the method: as §1

[2] = HEK293, read-out: hGIPR Emax, % ± SEM, cAMP, 37° C., 0.1% bovine casein and 1.0% human serum albumin, percent of maximal response to GIP(1-42)NH2
[3] = hGIPR EC50, nM (SEM, n), cAMP, 37° C., 0.1% bovine casein (no human serum albumin)
[4] = hGCGR EC50, nM (SEM, n), cAMP, 37° C., 0.1% bovine casein (no human serum albumin), geometric mean
[5] = hGCGR EC50, nM (SEM, n), cAMP, 37° C., 0.1% bovine casein and 1.0% human serum albumin, geometric mean (SEM, n)
[6] = hGLP-1R EC50, nM (SEM, n), cAMP, 0.1% bovine casein (no human serum albumin)

Sequence of hGLP-1R (P43220 24-463): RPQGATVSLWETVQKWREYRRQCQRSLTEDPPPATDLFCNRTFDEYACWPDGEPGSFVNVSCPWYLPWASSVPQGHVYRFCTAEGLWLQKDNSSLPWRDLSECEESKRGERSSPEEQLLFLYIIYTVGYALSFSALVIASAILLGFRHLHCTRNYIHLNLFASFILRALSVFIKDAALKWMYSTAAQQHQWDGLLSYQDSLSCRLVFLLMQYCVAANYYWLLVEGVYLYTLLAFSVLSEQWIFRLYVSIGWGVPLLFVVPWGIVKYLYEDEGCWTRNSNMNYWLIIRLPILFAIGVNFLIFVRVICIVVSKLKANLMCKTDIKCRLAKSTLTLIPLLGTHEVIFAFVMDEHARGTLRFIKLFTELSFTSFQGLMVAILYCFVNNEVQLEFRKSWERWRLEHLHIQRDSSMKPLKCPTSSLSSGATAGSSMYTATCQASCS
T3 sequence (P47871 26-477): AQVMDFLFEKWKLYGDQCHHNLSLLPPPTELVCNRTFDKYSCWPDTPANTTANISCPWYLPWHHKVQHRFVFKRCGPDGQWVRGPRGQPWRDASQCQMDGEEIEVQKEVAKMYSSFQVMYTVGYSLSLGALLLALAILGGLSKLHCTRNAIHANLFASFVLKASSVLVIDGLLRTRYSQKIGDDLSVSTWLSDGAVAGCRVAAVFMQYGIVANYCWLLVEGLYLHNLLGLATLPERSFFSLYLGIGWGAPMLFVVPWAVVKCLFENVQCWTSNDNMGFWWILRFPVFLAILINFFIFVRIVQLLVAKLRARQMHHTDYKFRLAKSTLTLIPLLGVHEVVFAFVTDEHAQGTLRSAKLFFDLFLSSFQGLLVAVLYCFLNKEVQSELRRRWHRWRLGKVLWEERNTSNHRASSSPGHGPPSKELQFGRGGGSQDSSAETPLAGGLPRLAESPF

`CC[C@H](C)[C@H](NC(=O)[C@H](CC(C)C)NC(=O)[C@](C)(Cc1ccc(O)cc1)NC(=O)[C@H](CCCCNC(=O)CCOCCOCCOCCOCCOCCOCCNC(=O)CC[C@H](NC(=O)CCCCCCCCCOc1ccc(C(=O)O)cc1)C(=O)O)NC(=O)[C@@H](NC(=O)[C@H](Cc1ccccc1)NC(=O)[C@H](CCCN)NC(=O)C(C)(C)NC(=O)[C@H](CCC(N)=O)NC(=O)[C@H](C)NC(=O)[C@H](CCC(N)=O)NC(=O)[C@H](CCCN)NC(=O)[C@H](CC(=O)O)NC(=O)[C@H](CC(C)C)NC(=O)[C@](C)(CC(C)C)NC(=O)[C@@H](NC(=O)C(C)(C)NC(=O)[C@H](Cc1ccncc1)NC(=O)[C@H](CC(=O)O)NC(=O)[C@H](CO)NC(=O)[C@@H](NC(=O)[C@](C)(Cc1ccccc1F)NC(=O)[C@@H](NC(=O)CNC(=O)[C@H](CCC(=O)O)NC(=O)C(C)(C)NC(=O)[C@@H](N)Cc1ccc(O)cc1)[C@@H](C)O)[C@@H](C)O)[C@@H](C)CC)[C@@H](C)CC)C(=O)N[C@@H](CCCCNC(=O)CCOCCOCCOCCOCCOCCOCCNC(=O)CC[C@H](NC(=O)CCCCCCCCCOc1ccc(C(=O)O)cc1)C(=O)O)C(=O)NCC(=O)NCC(=O)N1CCC[C@H]1C(=O)N[C@@H](CO)C(=O)N[C@@H](CO)C(=O)NCC(=O)N[C@@H](C)C(=O)N1CCC[C@H]1C(=O)N1CCC[C@H]1C(=O)N1CCC[C@H]1C(=O)N[C@@H](CO)C(N)=O` [Example 468] was tested, and the Ki [1] was 0.0291 nM, the Emax (hGIPR; [2]) was 85.9% and the Emax (hGIPR; HEK293, read-out: hGIPR Emax, % ± SEM, cAMP, 37° C., 0.1% bovine casein, percent of maximal response to GIP(1-42)NH2, arithmetic mean) was 97.1%. For the same compound, the EC50 (hGIPR; [3]) was 0.00991 nM, the EC50 (hGCGR; [4]) was greater than 10100 nM and the EC50 (hGCGR; [5]) was greater than 10100 nM. For the same compound, the Emax (hGLP-1R) was 109% and the EC50 (hGLP-1R; [6]) was 0.168 nM.
With `CC[C@H](C)[C@H](NC(=O)[C@H](CC(C)C)NC(=O)[C@](C)(Cc1ccc(O)cc1)NC(=O)[C@H](CCCCNC(=O)COCCOCCNC(=O)COCCOCCNC(=O)CC[C@H](NC(=O)CCCCCCCCCOc1ccc(C(=O)O)cc1)C(=O)O)NC(=O)[C@@H](NC(=O)[C@H](Cc1ccccc1)NC(=O)[C@H](CCCN)NC(=O)C(C)(C)NC(=O)[C@H](CCC(N)=O)NC(=O)[C@H](C)NC(=O)[C@H](CCC(N)=O)NC(=O)[C@H](CCCN)NC(=O)[C@H](CC(=O)O)NC(=O)[C@H](CC(C)C)NC(=O)[C@](C)(CC(C)C)NC(=O)[C@@H](NC(=O)C(C)(C)NC(=O)[C@H](Cc1ccc(O)cc1)NC(=O)[C@H](CC(=O)O)NC(=O)[C@H](CO)NC(=O)[C@@H](NC(=O)[C@](C)(Cc1ccccc1F)NC(=O)[C@@H](NC(=O)CNC(=O)[C@H](CCC(=O)O)NC(=O)C(C)(C)NC(=O)[C@@H](N)Cc1ccc(O)cc1)[C@@H](C)O)[C@@H](C)O)[C@@H](C)CC)[C@@H](C)CC)C(=O)N[C@@H](CCCCNC(=O)COCCOCCNC(=O)COCCOCCNC(=O)CC[C@H](NC(=O)CCCCCCCCCOc1ccc(C(=O)O)cc1)C(=O)O)C(=O)NCC(=O)NCC(=O)N1CCC[C@H]1C(=O)N[C@@H](CO)C(=O)N[C@@H](CO)C(=O)NCC(=O)N[C@@H](C)C(=O)N1CCC[C@H]1C(=O)N1CCC[C@H]1C(=O)N1CCC[C@H]1C(=O)N[C@@H](CO)C(N)=O` [Example 492] the Ki [1] was 0.0264 nM, the Emax (hGIPR; [2]) was 88.7% and the EC50 (hGIPR; [3]) was 0.0125 nM. For the same compound, the EC50 (hGCGR; [4]) was greater than 9950 nM, the EC50 (hGCGR; [5]) was greater than 9950 nM and the Emax (hGLP-1R) was 117%. It also gave an EC50 (hGLP-1R; [6]) of 0.143 nM.
`CC[C@H](C)[C@H](NC(=O)[C@H](CC(C)C)NC(=O)[C@](C)(Cc1ccc(O)cc1)NC(=O)[C@@H](CCC(=O)O)NC(=O)[C@@H](NC(=O)[C@H](Cc1ccccc1)NC(=O)[C@H](CCC(=O)O)NC(=O)C(C)(C)NC(=O)[C@H](CCC(N)=O)NC(=O)[C@H](C)NC(=O)[C@H](CCCCNC(=O)[C@@H](N)CCCCNC(=O)COCCOCCNC(=O)CC[C@H](NC(=O)CCCCCCCCCCCCC(=O)O)C(=O)O)NC(=O)[C@H](CCCN)NC(=O)[C@H](CC(=O)O)NC(=O)[C@H](CC(C)C)NC(=O)[C@](C)(CC(C)C)NC(=O)[C@@H](NC(=O)[C@H](CO)NC(=O)[C@H](Cc1ccncc1)NC(=O)[C@H](CC(=O)O)NC(=O)[C@H](CO)NC(=O)[C@@H](NC(=O)[C@](C)(Cc1ccccc1F)NC(=O)[C@@H](NC(=O)CNC(=O)[C@H](CCC(=O)O)NC(=O)C(C)(C)NC(=O)[C@@H](N)Cc1ccc(O)cc1)[C@@H](C)O)[C@@H](C)O)[C@@H](C)CC)[C@@H](C)CC)C(=O)N[C@@H](CCC(=O)O)C(=O)NCC(=O)NCC(=O)N[C@@H](CCCCNC(=O)[C@@H](N)CCCCNC(=O)COCCOCCNC(=O)CC[C@H](NC(=O)CCCCCCCCCCCCC(=O)O)C(=O)O)C(=O)N[C@@H](CO)C(=O)N[C@@H](CO)C(=O)NCC(=O)N[C@@H](C)C(=O)N1CCC[C@H]1C(=O)N1CCC[C@H]1C(=O)N1CCC[C@H]1C(=O)N[C@@H](CO)C(N)=O` [Example 36] showed a Ki ([1]; human GIPR, geometric mean (SEM, n), read-out: Binding Affinity Ki, nM (SEM, n) hGIPR) of 0.103 nM, an EC50 (hGIPR; 0.1% bovine casein and 1.0% human serum albumin, 37° C., read-out: hGIPR EC50, nM (SEM, n)) of 0.408 nM and an Emax (hGIPR; HEK293, 0.1% bovine casein and 1.0% human serum albumin, 37° C., percent of maximal response to GIP(1-42)NH2, read-out: hGIPR Emax, % ± SEM) of 91.4 ± 0.667%. For the same compound, the Emax (hGIPR; HEK293, percent of maximal response to GIP(1-42)NH2, 37° C., 0.1% bovine casein, arithmetic mean, read-out: hGIPR Emax, % ± SEM) was 95.4 ± 2.02%, the EC50 (hGIPR; cAMP, incubated at 37° C., 0.1% bovine casein (no human serum albumin), read-out: hGIPR EC50, nM (SEM, n)) was 0.0185 nM and the EC50 (hGCGR; 0.1% bovine casein and 1.0% human serum albumin, 37° C., geometric mean, read-out: hGCGR EC50, nM (SEM, n)) was greater than 9950 nM. It also gave an EC50 (hGCGR; cAMP, incubated at 37° C., 0.1% bovine casein (no human serum albumin), geometric mean, read-out: hGCGR EC50, nM (SEM, n)) greater than 9950 nM and an EC50 (hGLP-1R; 0.1% bovine casein and 1.0% human serum albumin, read-out: hGLP-1R EC50, nM (SEM, n)) of 10.9 nM.
